Test results from patent publication US20210161868A1, “ANTI-INFLAMMATORY THERAPY IN ARRHYTHMOGENIC CARDIOMYOPATHY (ACM)” (Beth Israel Deaconess Medical Center, Inc., priority 2018, published 2021).
“Also recorded” adds a separate entry of the source.

Legend:
[1] = tested on: neonatal rat ventricular myocytes (NRVMs) expressing JUP^2157del2; test: ACM features (protein distribution, immunofluorescence) in NRVMs expressing mutant plakoglobin; format: cell-based; parameters: pattern of distribution of plakoglobin, Cx43 and GSK3β: dose or concentration left out as unconfirmed
Source text: (§1) All animal studies were in full compliance with policies of Beth Israel Deaconess Medical Center, Johns Hopkins School of Medicine and St. George's University of London. They also conformed to the Guide for the Care and Use of Laboratory Animals from the National Institutes of Health (NIH publication no. 85-23, revised 1996). In vitro studies involved transfection of cultured neonatal rat ventricular myocytes with a mutant allele of the desmosomal protein plakoglobin (2157de12) as previously described.^15 In vivo studies were performed in mice with homozygous knock-in of a mutant form of Dsg2, the gene encoding the desmosomal cadherin desmoglein-2 (Dsg2^mut/mut mice) as previously described.^6 This mutation entails loss of exons 4 and 5 which causes a frameshift and premature termination of translation.
(§2) Primary cultures were prepared from disaggregated ventricles of 1-day-old Wistar rat pups (Charles River) as previously described.^15 Cell suspensions were pre-plated to reduce fibroblast content, placed in collagen-coated chamber slides at a density of 2.4×10^5 cells/cm^2, and grown for 4 days at 37° C. in M199 medium (GIBCO) (supplemented with penicillin, 20 U/mL; streptomycin, 20 μg/mL; 10% neonatal calf serum and 0.1 mM bromodeoxyuridine) in a humidified atmosphere containing 1% CO2. Epinephrine (0.01 μmol/mL) was added during the first 24 hours of culture. […]

[2] = tested on: neonatal rat ventricular myocytes (NRVMs) expressing JUP^2157del2; test: In vitro cytokine assay of NRVM culture media; format: cell-based; conditions: Bay11-7082 5 μM, 24 hours
Method: as §2, with “culture. At 24 hours post-seeding, cultures were transfected with an adenoviral construct expressing plakoglobin (JUP) with the 2157del2 mutation, as previously reported.^15 At 24 hours post-transfection, cultures were treated with Bay11-7082 (Sigma, […]) for an additional 24 hours.” for “culture.”
Culture media from cells expressing 2157del2 plakoglobin in the presence or absence of Bay11-7082 (5 μM, 24 hours) were collected after 96 hours in culture, mixed with a cocktail of biotinylated detection antibodies, and incubated with nitrocellulose membranes spotted in duplicate with control and capture antibodies (R&D Systems). […] The cytokine array specifically detected rat cytokines whereas cells were grown in media containing neonatal bovine serum. […]

[3] = tested on: neonatal rat ventricular myocytes (NRVMs) expressing JUP^2157del2; test: In vitro apoptosis assay (TUNEL) in NRVMs expressing mutant plakoglobin; format: cell-based; conditions: transfected NRVMs, 24 hours
Method: Primary cultures were prepared from disaggregated ventricles of 1-day-old Wistar rat pups (Charles River) as previously described.^15 Cell suspensions were pre-plated to reduce fibroblast content, placed in collagen-coated chamber slides at a density of 2.4×10^5 cells/cm^2, and grown for 4 days at 37° C. in M199 medium (GIBCO) (supplemented with penicillin, 20 U/mL; streptomycin, 20 μg/mL; 10% neonatal calf serum and 0.1 mM bromodeoxyuridine) in a humidified atmosphere containing 1% CO2. Epinephrine (0.01 μmol/mL) was added during the first 24 hours of culture. At 24 hours post-seeding, cultures were transfected with an adenoviral construct expressing plakoglobin (JUP) with the 2157del2 mutation, as previously reported.^15 At 24 hours post-transfection, cultures were treated with Bay11-7082 (Sigma, […]) for an additional 24 hours. Transfected cultures treated with vehicle only (DMSO) and non-transfected cultures were used for control purposes.
Terminal deoxynucleotidyl transferase dUTP nick end labeling (TUNEL) was performed on neonatal rat myocyte cultures according to the manufacturer's protocol (Millipore, S7110). The number of TUNEL-positive nuclei was counted in 5 randomly selected high-power fields in each culture well and expressed as a per cent of total nuclei visualized with DAPI.

Dsg2^mut/mut mice = test: Morphometry, echocardiography and electrocardiography in Dsg2^mut/mut mice; format: in vivo
Source text: as §1
Three cohorts of mice at 8 weeks of age were anesthetized and implanted with subcutaneous osmotic mini-pumps (Alzet, Model 1004). These included: 1) Dsg2^mut/mut mice with pumps containing 50 μg/μL Bay11-7082 in a vehicle of 65% DMSO, 15% ethanol, and 20% saline; 2) Dsg2^mut/mut mice with pumps containing an equivalent volume of vehicle; and 3) wildtype mice with pumps containing vehicle. Mice in cohort 1 received 5 mg/kg/day of Bay11-7082 by continuous infusion; those in cohorts 2 and 3 received an equivalent volume of vehicle each day for 4 weeks. At 12 weeks of age, mice were re-anesthetized and new Alzet pumps were implanted for an additional 4 weeks of treatment.
At the end of the 8 week drug treatment protocol, cardiac function was assessed in all mice by transthoracic echocardiography and electrocardiography (ECG) as previously described. Echocardio-graphic measurements were made according to American Society of Echocardiography guidelines^48 in non-sedated mice using a Vevo 2100 Visualsonic imaging system. Parasternal long-axis views of the left ventricle (LV), at the level of the papillary muscles, were acquired at a sweep speed of 200 mm/second. Three to five measurements were acquired from each mouse and averaged to assess LV function as previously described. ECG measurements made in anesthetized mice in which wire electrodes had been sutured in place in the right and left arms to obtain standard lead I ECG recordings. Recordings were captured via PowerLab and analyzed via the LabChart Pro ECG Analysis Add-on Software (LabChart Pro 8, MLS360/8, AD Intruments). ECGs were recorded for 15 minutes and all ECG wave and amplitude parameters were analyzed as signal averaged ECGs (SAECGs). Following completion of functional studies, mice were euthanized and hearts were excised and processed for additional studies either by freezing fresh tissue (−80C) or fixing tissue in 10% buffered formalin and embedding in paraffin.

[4] = Dsg2^mut/mut + Bay11-7082, n=17, mean±SEM, 8 week treatment
[5] = Dsg2^mut/mut mice, continuous infusion over 8 weeks

## Cc1ccc(S(=O)(=O)/C=C/C#N)cc1 [Bay 11-7082]
[1]; NRVMs expressing mutant plakoglobin
  in vitro readouts of the ACM phenotype (plakoglobin, Cx43, apoptosis, cytokines): blocked; also recorded: completely reversed
[1]; transfected NRVMs, Bay11-7082, 24 hours
  pattern of distribution of plakoglobin, Cx43 and GSK3β: normalized; also recorded: indistinguishable from that seen in control
[2]
  accumulation of cytokines and chemoattractants in culture media: reduces; also recorded: greatly reduced
[3]
  myocyte apoptosis, TUNEL labeling: normalization; also recorded: returned to control levels
Dsg2^mut/mut mice; [4]
  FS, fractional shortening: 49.5 ± 1.9%
  HW/BW, heart weight/body weight: 4.7 ± 0.1 mg/g
  IVSd, interventricular septum thickness at end-diastole: 0.95 ± 0.02 mm
  LVIDd, left ventricular internal diameter at end-diastole: 2.96 ± 0.06 mm
  LVIDs, left ventricular internal diameter at end-systole: 1.50 ± 0.08 mm
  LVM, left ventricular mass: 92.9 ± 3.08 mg
  P-Amp, P-wave amplitude: 0.06 ± 0.003 mV
  PR-I, P-R interval: 39.0 ± 0.9 ms
  Pd, P-wave duration: 10.1 ± 0.5 ms
  Q-Amp, Q-wave amplitude: −0.06 ± 0.01 mV
  QRSd, QRS wave duration: 11.4 ± 0.4 ms
  R-Amp, R-wave amplitude: 0.66 ± 0.04 mV
  RR-I, R-R interval: 118 ± 2.5 ms
  S-Amp, S-wave amplitude: −0.09 ± 0.04 mV
Dsg2^mut/mut mice; [5]
  abnormalities in the signal averaged ECG: corrected
  contractile function: normalized
Dsg2^mut/mut mice; related to technical failure of drug delivery by Alzet minipumps
  treated ACM mice that failed to respond to NFκB inhibition: 3 of 17
